The source of these data is patent EP0668759B1, “TRANSDERMAL DELIVERY OF KETOROLAC” (Neurogesx, Inc., priority 1992, dated 1994).

For data set [1] the following is noted: approximate; cited from earlier work.
For data set [2] the following is noted: in the presence of light; cited from earlier work.
Data set [3] is classed as in vitro ADME, Human. The protocol:
Skin permeation rates of various ketorolac/enhancer formulations were determined using flow through diffusion cells with an active area of 1 cm^2 and a receiving column of 3 ml. The receptor fluid, isotonic saline, was pumped into and through the cells by a peristaltic pump. Samples were collected in glass vials arranged in an automatic fraction collector. Human skin was placed on the lower half of the diffusion cell with the stratum corneum facing the donor compartment. The test solution or transdermal device was placed on the stratum corneum and the amount of drug permeated across the skin (µg/cm^2·hr) was calculated from the cumulative release.

The conditions of data set [4]: water and methanol; cited from earlier work.

Molecules are shown by their SMILES.

In the case of `O=C(c1ccccc1)c1ccc2n1CCC2C(=O)O` (racemic) [ketorolac], the half-life (in general, the time needed for the level to fall by half in the phase considered) in data set [1] was ~4 h. Moreover, the stability to light result in data set [2] is listed as “degrades in the presence of light”.

`O=C(c1ccccc1)c1ccc2n1CC[C@@H]2C(=O)O` [(-) ketorolac]: the “permeability to human skin” value in data set [3] was “as permeable to human skin as the racemate”.

On to `O=C(c1ccccc1)c1ccc2n1CCC2C(=O)O` (stereo not shown) [Ketorolac tromethamine], for which, in data set [4], the solubility entry is “freely soluble in water and methanol”.
